Target: T1, PRMT5-MEP50 enzyme (Homo sapiens, UniProt O14744)
T1 construct: One virus expresses full length human PRMT5 with Flag-tag at N-terminus; Flag (N); purchased Charles River (Argenta); host or cells: insect cells (Sf9), baculovirus co-infection
Assay: In vitro assay 1b: PRMT5-MEP50 high throughput mass spectrometer assay (SAH formation), 1.25 nM enzyme
Assay type: biochemical
Conditions: 1.25 nM enzyme, 1 μM SAM, 0.3 μM H2A, 30° C., 120 min; averaged values; read-out: pIC50 Assay 1b (converted)
Source text: Experimental Procedures In Vitro Assay (Assay 1a and 1b)
PRMT5-MEP50 enzyme was purchased from Charles River (Argenta). The enzyme complex was produced in insect cells (Sf9) infected simultaneously with two baculoviruses. One virus expresses full length human PRMT5 with Flag-tag at N-terminus, the second virus expresses full length MEP50 with His6-TEV cleavage at N-terminus. The protein was affinity purified using anti-Flag (M2) beads eluted with 3×FLAG peptide, followed by His-Select eluted with 0.5M imidazole. Eluted protein was then dialysed against tris-buffered saline (TBS) (pH 8.0) containing 20% glycerol and 3 mM dithiothreitol (DTT).
Full-length untagged human recombinant histone H2A (residues 1-130, Genbank Accession #NM_021052, MW=14.1 kDa) expressed in E. coli was purchased from Reaction Biology Corporation, Cat #HMT-11-146. Reagents used for making reaction buffer or stopping reaction were purchased including Tris base (Sigma Cat #T-1503), NaCl (Sigma Cat #RGF-3270), MgCl2 (Sigma Cat #M0250), DTT (Invitrogen Cat #15508-013) and Formic Acid (Riedel deHaen, Cat #33015)
PRMT5 catalyzes the sequential methylations of the terminal nitrogen atoms on the guanidine groups of arginine residues within proteins using co-substrate S-adenosyl-L-methionine (AdoMet, SAM), forming mono-methyl (MMA), syrmmetric-dimethyl arginine (sDMA) and S-adenosyl-L-homocysteine (AdoHcy, SAH). The enzyme activity was determined by following the product SAH formation using high throughput mass spectrometry (Agilent Rapidfire 300 System coupled to a Sciex 4000 series QTrap® triple-quad MS/MS). The reaction buffer was 20 mM Tris-HCl, pH 8.5, 50 mM NaCl, 5 mM MgCl2 and 1 mM DTT. The reaction activity was stopped using 1% formic acid (final concentration).
The IC50 Studies were performed using eleven point dosing series made for each compound by serially diluted 1:2 in dimethyl sulfoxide (DMSO), with point 12 being a DMSO control. Compounds were first spotted to plates, and followed by addition of 2 μM SAM and 0.6 μM H2A (histone H2A) solution mixture. The same volume of enzyme solution was added to initiate the enzymatic reactions. The final concentrations of the reaction are at 1 μM SAM, 0.3 μM H2A and 10 nM enzyme (assay 1a) or or 1.25 nM enzyme (assay 1b). The reaction was incubated at 30° C. for 60 minutes (min) when 10 nM enzyme was used and for 120 min when 1.25 nM enzyme was used. Subsequently, the reaction was quenched by addition of formic acid to a final concentration of 1%. The inhibitions of SAH formation in the presence of compounds were calculated as a percentage of the control relative to the uninhibited reaction as a function of inhibitor concentration. The data were fit as follows: Y=Bottom+(Top−Bottom)/(1+10^((log IC50−X)*h))
where IC50 is the inhibitor concentration (same unit as X) at 50% inhibition and h is the Hill slope. Y is percent of inhibition, X is log of compound concentration. Bottom and Top are the plateaus in same units as Y.

T1 sequence (O14744 whole entry): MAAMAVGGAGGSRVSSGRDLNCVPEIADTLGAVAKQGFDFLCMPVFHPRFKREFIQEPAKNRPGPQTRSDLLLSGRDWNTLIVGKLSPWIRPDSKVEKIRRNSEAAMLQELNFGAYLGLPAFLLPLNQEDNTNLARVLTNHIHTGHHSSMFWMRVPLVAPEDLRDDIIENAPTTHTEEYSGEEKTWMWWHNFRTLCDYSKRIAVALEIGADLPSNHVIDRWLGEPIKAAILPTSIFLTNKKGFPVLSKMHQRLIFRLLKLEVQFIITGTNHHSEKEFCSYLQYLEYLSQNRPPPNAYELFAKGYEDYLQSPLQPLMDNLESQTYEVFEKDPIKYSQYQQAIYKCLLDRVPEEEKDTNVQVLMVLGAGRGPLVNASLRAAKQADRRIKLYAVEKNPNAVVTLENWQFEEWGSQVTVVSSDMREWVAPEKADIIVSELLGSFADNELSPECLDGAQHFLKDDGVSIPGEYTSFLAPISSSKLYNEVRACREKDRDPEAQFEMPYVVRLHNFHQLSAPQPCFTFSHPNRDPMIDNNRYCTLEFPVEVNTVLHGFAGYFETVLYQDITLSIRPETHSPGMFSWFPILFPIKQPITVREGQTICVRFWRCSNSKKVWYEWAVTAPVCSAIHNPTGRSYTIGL
T1 sequence (Q9BQA1 whole entry partner): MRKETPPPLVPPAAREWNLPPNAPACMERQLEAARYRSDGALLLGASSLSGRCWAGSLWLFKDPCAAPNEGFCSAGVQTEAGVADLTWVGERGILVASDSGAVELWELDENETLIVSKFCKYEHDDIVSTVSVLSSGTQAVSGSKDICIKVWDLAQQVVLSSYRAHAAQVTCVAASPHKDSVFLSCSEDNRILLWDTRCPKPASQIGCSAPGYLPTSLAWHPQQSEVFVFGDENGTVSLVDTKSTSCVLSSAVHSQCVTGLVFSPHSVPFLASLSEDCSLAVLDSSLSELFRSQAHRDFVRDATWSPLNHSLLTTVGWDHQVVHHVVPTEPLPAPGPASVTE

Row | IC50 | Compound
1 | 0.0398 µM | Nc1ncnc2c1ccn2[C@@H]1C[C@H](CCc2ccn3cc(C(F)(F)F)nc3c2)[C@@H](O)[C@H]1O [Compound 23]
2 | 0.0631 µM | CC(=O)Nc1cn2ccc(CC[C@H]3C[C@@H](n4ccc5c(N)ncnc54)[C@H](O)[C@@H]3O)cc2n1 [Compound 31]
3 | 0.00501 µM | Cc1cn2ccc(OC[C@H]3C[C@@H](n4ccc5c(N)ncnc54)[C@H](O)[C@@H]3O)cc2n1 [Compound 33]
4 | 2 µM | Nc1cc(/C=C/[C@H]2C[C@@H](n3ccc4c(N)ncnc43)[C@H](O)[C@@H]2O)ccn1 [Compound 36]
5 | 0.794 µM | Nc1cccc(/C=C/[C@H]2C[C@@H](n3ccc4c(N)ncnc43)[C@H](O)[C@@H]2O)n1 [Compound 37]
6 | 0.794 µM | Cn1cncc1CC[C@H]1C[C@@H](n2ccc3c(N)ncnc32)[C@H](O)[C@@H]1O [Compound 38]
7 | 2 µM | CC(c1cncn1C)[C@H]1C[C@@H](n2ccc3c(N)ncnc32)[C@H](O)[C@@H]1O (some centres unmarked) [Compound 39]
8 | 0.0794 µM | Nc1cccc(CCC[C@H]2C[C@@H](n3ccc4c(N)ncnc43)[C@H](O)[C@@H]2O)n1 [Compound 40]
9 | 0.398 µM | Nc1cc2cccc(CCC[C@H]3C[C@@H](n4ccc5c(N)ncnc54)[C@H](O)[C@@H]3O)c2cn1 [Compound 41]
10 | 0.316 µM | Nc1ncnc2c1ccn2[C@@H]1C[C@H](CCCc2cccnc2)[C@@H](O)[C@H]1O [Compound 42]
11 | 0.251 µM | Nc1ncnc2c1ccn2[C@@H]1C[C@H](CCCc2cnc3ccccc3c2)[C@@H](O)[C@H]1O [Compound 43]
12 | 1.58 µM | Nc1ncnc2c1ccn2[C@@H]1C[C@H](CCCc2cnc3c(N)cccc3c2)[C@@H](O)[C@H]1O [Compound 44]
13 | 0.501 µM | Nc1cc(CCC[C@H]2C[C@@H](n3ccc4c(N)ncnc43)[C@H](O)[C@@H]2O)ccn1 [Compound 45]
14 | > 2.51 µM | Nc1ncnc2c1ccn2[C@@H]1C[C@H](CCCc2ccccn2)[C@@H](O)[C@H]1O [Compound 46]
15 | 1.58 µM | Nc1ncnc2c1ccn2[C@@H]1C[C@H](CCCc2ccc3cccnc3c2)[C@@H](O)[C@H]1O [Compound 47]
16 | 0.0316 µM | Nc1ncnc2c1ccn2[C@@H]1C[C@H](CCCc2ccn3ccnc3c2)[C@@H](O)[C@H]1O [Compound 48]
17 | > 2.51 µM | Nc1ncnc2c1ccn2[C@@H]1C[C@H](CCCc2ccncc2)[C@@H](O)[C@H]1O [Compound 49]
18 | 0.0316 µM | Nc1ccc2cccc(CCC[C@H]3C[C@@H](n4ccc5c(N)ncnc54)[C@H](O)[C@@H]3O)c2n1 [Compound 50]
19 | 0.316 µM | Nc1ncnc2c1ccn2[C@@H]1C[C@H](CCCc2cccc3ccncc23)[C@@H](O)[C@H]1O [Compound 51]
20 | > 2.51 µM | Nc1ncnc2c1ccn2[C@@H]1C[C@H](CCCc2cccc3cccnc23)[C@@H](O)[C@H]1O [Compound 52]
21 | 0.002 µM | Nc1ccc(CCC[C@H]2C[C@@H](n3ccc4c(N)ncnc43)[C@H](O)[C@@H]2O)cn1 [Compound 53]
22 | 0.1 µM | Nc1cc2cccc(CCCC[C@H]3C[C@@H](n4ccc5c(N)ncnc54)[C@H](O)[C@@H]3O)c2cn1 [Compound 54]
23 | 0.000398 µM | Nc1cccc(CCCC[C@H]2C[C@@H](n3ccc4c(N)ncnc43)[C@H](O)[C@@H]2O)n1 [Compound 55]
24 | 0.00794 µM | Nc1ccc(CCCC[C@H]2C[C@@H](n3ccc4c(N)ncnc43)[C@H](O)[C@@H]2O)cn1 [Compound 56]
25 | 0.0794 µM | Nc1cc(CCCC[C@H]2C[C@@H](n3ccc4c(N)ncnc43)[C@H](O)[C@@H]2O)ccn1 [Compound 57]
26 | > 2.51 µM | Nc1ncnc2c1ccn2[C@@H]1C[C@H](CCCCc2cccc3cccnc23)[C@@H](O)[C@H]1O [Compound 58]
27 | 2 µM | Nc1ncnc2c1ccn2[C@@H]1C[C@H](CCCCc2cnc3c(N)cccc3c2)[C@@H](O)[C@H]1O [Compound 59]
28 | 0.251 µM | Nc1ncnc2c1ccn2[C@@H]1C[C@H](CCCCc2ccc3cccnc3c2)[C@@H](O)[C@H]1O [Compound 60]
29 | 0.00794 µM | Nc1ncnc2c1ccn2[C@@H]1C[C@H](CCCCc2ccn3ccnc3c2)[C@@H](O)[C@H]1O [Compound 61]
